This is an account of results in patent publication US9539272B2, “HDAC 6 inhibitor-based methods for treating cancer” (SLOAN-KETTERING INSTITUTE FOR CANCER RESEARCH, priority 2009, dated 2017).

Assay [1] relates to acetylated α-tubulin and acetylated histone H3 in LNCaP cells. Description: Accumulation of acetylated α-tubulin and acetylated histone H3 in LNCaP cells (Western blot). Conditions: BAHA 1.0 or 1.5 μM, SAHA 1.5 and 2.0 μM. Format: cell-based, human. The protocol:
2×10^6 transformed cells were cultured for 24 hrs in a 10 cm tissue culture dish with 10 ml RPMI 1640 medium. HDAC inhibitors and/or other agents were added in concentrations as indicated for each study to the cultures and cell cultured for times indicated. Cells were harvested by scrapping, washed once with PBS, lyzed with histone extraction buffer (1 ml/10^7 cells), which contains 10 mM MgCl2, 10 mM Tris, 25 mM KCl, 1% Triton X-100, 8.6% sucrose and protease inhibitor cocktail (Roche Diagnostics Gmbh, Indianapolis, Ind.), pH 6.5. Cells were centrifuged at 600 g at 4° C. for 5 mins. The supernatants were saved as cell lyates. The pellets (nuclei) were washed once with TE buffer, suspended in 0.4 NH2SO4 (100 μl/10^7 cells), incubated for 1 hr on ice, and centrifuged at 10,000 g for 10 mins at 4° C. The supernatant was collected, mixed with 1 ml acetone, incubated at −20° C. for more than 1 hr, and centrifuged at 10,000 g for 10 mins at 4° C. The pellets were suspended in water (100 μl/10^7 cells). The protein concentrations were measured with Braford reagent (Bio-Rad, Hercules, Calif.).
1×10^6 cells in a 10 cm diameter cell culture dish were washed with PBS, harvested by trypsinization in 0.05% trypsin for LNCaP and 0.25% trypsin for MCF7, A549, HFS and WI38 resuspended in RIPA at 50 μl for every 1×10^6 cells. Antibodies used were: anti-acetylated tubulin (Sigma), anti-HDAC 6 (Santa Cruz Biotechnology), and anti-tubulin (Calbiochem), (Xu et al. Cancer Research, 65:7832-7839, 2005).
For orientation: A western blot detects proteins with antibodies after separation by electrophoresis.

The test system of assay [2] is MCF-7 cells. Description: Cell growth and viability by trypan blue exclusion, MCF-7. Format: cell-based, human. Conditions: MCF-7, 72 hrs; 8 μM tubacin, 5 μM SAHA, […] doxorubicin, 100 μM etoposide, alone or plus 8 μM tubacin.
Description: (§1) 5×10^4 cells were seeded per well in a 24-well plate and cultured overnight prior to treating with the compound and/or other agents as indicated for each study. Cells were harvested at 24, 48 and 72 hrs after treatment by trypsin digestion. […] At least three independent analyses were performed for each time point.
(§2) To monitor cell growth and viability, cells were seeded in triplicate at 5×10^4 cells in 1 ml of medium in 24-well plates. The drugs were added at the indicated concentrations 24 h after seeding. Cells were harvested by trypsin digestion at 24 h, 48 h and 72 h following drug additions. Cell number and viability were determined by trypan blue exclusion.
Assay [3] has as its system HFS cells. Description: Cell viability, normal human foreskin cells (HFS). The assay is classed as cell-based. Conditions: 8 μM tubacin, 5 μM SAHA, alone or together.
Description: as §1, §2
The subject of assay [4] is WI38 cells. Description: Cell viability, normal human embryonic fibroblast WI38. The assay is classed as cell-based. Conditions: 8 μM tubacin, 5 μM SAHA, alone or together.
Description: as §1
Assay [5] relates to LNCaP HDAC 6 knockdown cells. In words: Cell viability, LNCaP HDAC 6 knockdown cells. Conditions: LNCaP HDAC 6 knockdown, 72 hrs. The assay is classed as cell-based, human. An excerpt: shRNA lentiviral particles targeting different regions of HDAC6 mRNA, HDAC6 KD1 (HDAC6 knockdown 1) at 1.7×10^7 TU/ml and HDAC6 KD2 (HDAC6 knockdown 2) at 1.9×10^7 TU/ml, and a non-targeting ‘scramble’ shRNA control particles (#SHC002V) at 1.1×10^7 TU/ml, were purchased from Sigma-Aldrich and transfected according to the manufacturer's instructions using polybrene (Millipore). The 21-nucleotide sequence corresponding to HDAC6 mRNA for HDAC6 KD1 is 5′-[…]-3′ and for HDAC6 KD2 is 5′-[…]-3′. For each shRNA, 5×10^5 cells were infected at an MOT of 2.

Assay [6] relates to γH2AX. Description: Accumulation of γH2AX in LNCaP cells (Western blot, ImageJ quantitation). Format: cell-based, human. Conditions: 24 h.
Description: (§3) 1×10^6 cells were seeded in a 10 cm diameter cell culture dish and cultured overnight prior to addition of the indicated drugs, washed with PBS, harvested by trypsinisation and lysed in RIPA buffer (50 mM Tris-HCL pH8.0, 120 mM NaCl, 0.5 mM EDTA, 0.5% NP-40). […] Quantitation of western blots was performed using ImageJ.
Assay [7] relates to phospho-Chk2. In words: Accumulation of phospho-Chk2 in LNCaP cells (Western blot). Format: cell-based, human. Conditions: 24 h.
Description: as §3
The subject of assay [8] is LNCaP cells. In words: Microarray analysis of gene expression in LNCaP cells. Also on record: Total gene number: dose or concentration left out as unconfirmed. Format: cell-based, human. The protocol:
Alterations in gene expression were evaluated by microarray using the Illumina human cDNA array containing cDNA probes representing the whole genome (10000 genes). […] Triplicate samples were prepared for each drug treatment at each time point. Poly(A)+ mRNA was isolated from cells using Trizol reagent according to manufacturer's protocol (Invitrogen). The data was analyzed using the Bioconductor packages (www.bioconductor.com) for the R statistical system. The output from Beadstudio was processed using the LUMI package. The normalization method used was quantile and the signal levels were log (base 2) transformed. To determine genes that are differentially expressed between the various sample types, the LIMMA package was used.

The subject of assay [9] is LNCaP cells. In words: Quantitative real-time PCR in LNCaP cells. The assay is classed as cell-based, human. Conditions: quantitative real-time PCR. The protocol:
[…] of total RNA was reverse-transcribed using the Thermoscript RT-PCR system (Invitrogen) at 52° C. for 1 h. 20 ng of resultant cDNA was used in a Q-PCR reaction using an 7500 Real-Time PCR System (Applied Biosystems) using predesigned primers for DDIT3, DDIT4, Mcm4, Mcm6, Cdt1, Psf2 and GAPDH (Applied Biosystems). Amplification was carried for 40 cycles (95° C. for 15 sec, 60° C. for 1 min). To calculate the efficiency of the PCR reaction, and to assess the sensitivity of each assay, we performed a 6 point standard curve (5, 1.7, 0.56, 0.19, 0.062, and 0.021 ng). Triplicate CT values were averaged, amounts of target were interpolated from the standard curves and normalized to GAPDH (assay Hs99999909_m1).
(In qPCR the cycle at which signal appears reflects the starting amount.)

In assay [10] the test system is LNCaP cells. Description: Cell cycle analysis by flow cytometry, LNCaP. The assay is classed as cell-based, human. Conditions: 24 h, propidium iodide. The protocol: Cells were harvested at 24 h culture with the indicated drugs, washed with PBS and fixed in methanol. Cells were then resuspended in a buffer containing […] propidium iodide and […] RNase A. Samples were analysed by flow cytometry using a Becton Dickinson FACSCalibur flow cytometer. Data were collected for 10,000 events and analyzed using FlowJo software.
Background: A flow cytometer gives signals particle by particle.

Assay [11] relates to PARP. In words: PARP cleavage in LNCaP cells (Western blot). Conditions: 48 h.
Description: as §3
For assay [12], the system named is LNCaP cells. In words: Cell growth and viability by trypan blue exclusion, LNCaP.
Description: as §1, §2
Assay [13] has as its system acetylated tubulin and acetylated histone H3 in A549 cells. Conditions: 24 hrs, tubacin 0.2, 2 or 20 μM; cited from earlier work.
The target in assay [14] is T1, recombinant human HDAC 6 (Homo sapiens, UniProt Q9UBN7).
T1 sequence (Q9UBN7 1-1215): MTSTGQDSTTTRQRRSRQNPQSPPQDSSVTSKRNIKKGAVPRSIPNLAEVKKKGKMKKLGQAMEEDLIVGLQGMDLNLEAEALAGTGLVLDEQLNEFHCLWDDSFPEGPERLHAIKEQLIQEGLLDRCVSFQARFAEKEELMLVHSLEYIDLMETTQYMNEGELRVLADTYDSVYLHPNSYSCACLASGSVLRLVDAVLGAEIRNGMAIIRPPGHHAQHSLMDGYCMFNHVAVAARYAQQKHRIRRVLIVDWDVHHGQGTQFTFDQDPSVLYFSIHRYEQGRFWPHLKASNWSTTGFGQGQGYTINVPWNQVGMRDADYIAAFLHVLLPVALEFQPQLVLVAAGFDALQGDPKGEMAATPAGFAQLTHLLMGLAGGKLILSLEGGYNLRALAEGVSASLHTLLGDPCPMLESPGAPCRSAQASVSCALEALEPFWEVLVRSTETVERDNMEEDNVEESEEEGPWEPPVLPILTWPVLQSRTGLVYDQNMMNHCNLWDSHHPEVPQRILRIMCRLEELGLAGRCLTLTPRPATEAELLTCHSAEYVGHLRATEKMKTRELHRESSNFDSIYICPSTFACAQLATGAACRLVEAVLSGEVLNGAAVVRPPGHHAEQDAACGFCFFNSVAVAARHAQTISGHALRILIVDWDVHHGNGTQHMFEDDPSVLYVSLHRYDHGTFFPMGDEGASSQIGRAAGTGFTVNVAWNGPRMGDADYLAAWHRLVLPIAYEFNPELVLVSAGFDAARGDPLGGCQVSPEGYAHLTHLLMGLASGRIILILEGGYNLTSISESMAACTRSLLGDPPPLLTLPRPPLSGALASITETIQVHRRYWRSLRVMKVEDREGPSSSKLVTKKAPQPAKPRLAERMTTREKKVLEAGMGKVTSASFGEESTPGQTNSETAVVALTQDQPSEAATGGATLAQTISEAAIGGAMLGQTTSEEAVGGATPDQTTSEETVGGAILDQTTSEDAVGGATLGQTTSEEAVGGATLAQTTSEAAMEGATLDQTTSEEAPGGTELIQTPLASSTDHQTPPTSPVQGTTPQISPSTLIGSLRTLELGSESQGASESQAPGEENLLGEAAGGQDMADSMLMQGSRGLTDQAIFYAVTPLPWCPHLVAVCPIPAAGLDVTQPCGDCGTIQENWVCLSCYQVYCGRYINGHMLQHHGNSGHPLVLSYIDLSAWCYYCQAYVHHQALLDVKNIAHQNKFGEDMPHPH
Description: In vitro HDAC assay with fluorogenic substrate, HDAC 6.
Description: (§4) Inhibition of HDAC 1 and HDAC 6 were analyzed with a fluorogenic substrate according to manufacture's protocol (HDAC assay reagents were purchased from BPS Biosciences, San Diego, Calif.). 50 μl reaction mixture, which contains 1×HDAC assay buffer, 5 units of recombinant human HDAC1 or HDAC 6, 10 μM substrate 3 and 1 μl inhibitor in DMSO, was incubated at 37° C. for 1 hour. […] The fluorescence intensity was measured at excitation of 360 nm and emission of 460 nm with SpectraMax Gemini XS microplate reader (Molecular Devices, Sunny Calif.).

Assay [15] addresses recombinant human HDAC1 (Homo sapiens, UniProt Q13547). In words: In vitro HDAC assay with fluorogenic substrate, HDAC 1.
Description: as §4
Where [16] appears, read: LNCaP, 25 μM or 50 μM SAHA, 72 hrs.

recombinant human HDAC1, sequence (Q13547 whole entry): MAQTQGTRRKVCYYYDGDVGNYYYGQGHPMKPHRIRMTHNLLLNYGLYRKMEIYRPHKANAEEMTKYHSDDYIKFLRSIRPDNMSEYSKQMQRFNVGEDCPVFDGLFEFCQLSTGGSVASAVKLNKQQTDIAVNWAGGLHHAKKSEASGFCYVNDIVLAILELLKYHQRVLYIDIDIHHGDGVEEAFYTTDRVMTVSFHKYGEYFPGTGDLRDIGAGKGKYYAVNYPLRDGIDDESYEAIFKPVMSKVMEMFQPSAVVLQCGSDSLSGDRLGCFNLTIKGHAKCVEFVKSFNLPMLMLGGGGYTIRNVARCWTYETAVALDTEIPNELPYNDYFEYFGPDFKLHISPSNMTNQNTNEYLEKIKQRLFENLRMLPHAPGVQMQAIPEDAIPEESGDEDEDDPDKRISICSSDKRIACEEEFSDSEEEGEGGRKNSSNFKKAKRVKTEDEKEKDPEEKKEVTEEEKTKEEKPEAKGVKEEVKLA

In the case of `O=C(CCCCCCC(=O)Nc1ccccc1)NO` [SAHA, Suberoylanilide Hydroxamic Acid], the “accumulation of acetylated histone H3” value in assay [1] is “caused an increase in accumulation”. Besides, the “accumulation of acetylated α-tubulin” value in assay [1] was “caused an increase in accumulation”. Also, the cell death in assay [2] is given as 40%; in [3] it was “did not cause cell death”; in assay [4], “did not cause cell death”; in [5] (2.5 μM SAHA), 25%; in assay [5] (5.0 μM SAHA) it was 80%; in assay [12] (LNCaP, 1.25 μM SAHA, alone or plus 1 μM BAHA, 72 hrs), “no detectable cell death”. For the same compound, the cell death entry in assay [12] (LNCaP, 2.5 μM SAHA, alone or plus 1 μM BAHA, 72 hrs) is “less than 10%”; in [12] (LNCaP, 2.5 μM SAHA, alone or with 8 μM tubacin, 72 hrs), “no detectable”; in assay [12] (LNCaP, 5 μM SAHA, alone or plus 1 μM BAHA, 72 hrs), 65%; in [12] (LNCaP, 5 μM SAHA, alone or with 8 μM tubacin, 72 hrs), 45%; in [12] (setting [16]), 100%; in assay [12] (LNCaP, […] SAHA, alone or plus 8 μM tubacin, after 8 hrs) it was 40%. In addition, the cell death result was “no cell death” in assay [12] (wild type LNCaP, 2.5 μM SAHA, 72 hrs (knockdown comparison)) and 35% in assay [12] (wild type LNCaP, 5.0 μM SAHA, 72 hrs (knockdown comparison)). Further, the “rate of cell growth” value in [2] is given as “markedly decreased”; in assay [12] (LNCaP, 2.5, 5 or […] SAHA, alone or plus 8 μM tubacin) it was “markedly decreased”. Further, the “accumulation of γH2AX” value in [6] is listed as “increased”. In addition, the “level of phospho-Chk2” value in [7] is “increase of phospho-Chk2”. In addition, in assay [8] (2 h), the “DDIT3 gene expression change” value was determined as 2.18 fold. Further, the “DDIT4 gene expression change” value in [8] (2 h) was “* (No detectable change of ≧2-fold)”; in [8] (8 h), 5.36 fold; in [8] (24 h), 3.81 fold. For the same compound, the Total gene number in [8] (2 h, genes changed ≧2-fold) was found to be 37; in assay [8] (8 h, ≧2-fold) it was 628; in [8] (24 h, ≧2-fold), 1951. In addition, the Downregulated genes is listed as 16 in [8] (2 h, ≧2-fold); 302 in assay [8] (8 h, ≧2-fold); 989 in assay [8] (24 h, ≧2-fold). Besides, the Upregulated genes in [8] (2 h, ≧2-fold) turned out to be 21; in assay [8] (8 h, ≧2-fold), 326; in [8] (24 h, ≧2-fold), 962. For the same compound, the “expression of Mcm4, Mcm6, Cdt1 and Psf2” value in [9] is reported as “downregulated”. The cell cycle distribution entry in assay [10] is “increase in both G1 and G2 arrested cells”. Further, the values for the PARP cleavage entry in assay [11] (2.5 mM SAHA) and in assay [11] (5 mM SAHA) were “did not result in PARE cleavage” and “resulted in PARP cleavage”, respectively. Further, the cell growth entry in assay [12] (setting [16]) was “growth inhibition”.
As for `O=C(O)CCCCCCC(=O)Nc1ccc([C@H]2O[C@@H](CSc3nc(-c4ccccc4)c(-c4ccccc4)o3)C[C@@H](c3ccc(CO)cc3)O2)cc1` [niltubacin], the “accumulation of acetylated histone H3” value in assay [13] is “did not induce accumulation”. Besides, the “accumulation of acetylated tubulin” value in assay [13] is on record as “did not induce the accumulation”. For the same compound, the IC50 in [14] and in [15] was > 0.1 µM in each case. Also, the “effect on cell growth or cell viability” value in assay [12] (LNCaP, 8 μM nil-tubacin alone) was “did not have a detectable effect”.

One may read the IC50 as the concentration that inhibits the measured activity by half.
